Two compounds from US12721934B2, “Cationic nanodrug, preparation method therefor, and drug-loaded implantable medical device” (SHANGHAI MICROPORT MEDICAL (GROUP) CO., LTD., priority 2019, dated 2026) can be followed below.

The structures appear in SMILES notation.

In the data set the test system is Vascular smooth muscle cells (SMCs). The data set can be described thus: Cytotoxicity of the cationic substances (MTT). In kind it is cell-based. As for the experimental part:
Vascular smooth muscle cells (SMCs) were collected and the cell concentration was determined using a hemocytometer. The cell concentration was adjusted to […] using a liquid cell culture medium. The cell suspension was dispensed on a 96-well plate ([…] cells in each well) and the wells were divided into groups (a control group and four test groups), four wells for each group. After the cells were cultivated for 24 hours under regular cell culture conditions, the culture medium was pipetted away. Each of the fresh culture media and culture media respectively containing the suspensions of non-drug loaded nanoparticles prepared in Example 14, Comparative Example 2 and Comparative Example 3 was added (the cationic substance in each of the three examples has a same concentration). After the cells were further cultivated for 24 hours, 50 μL of an MTT agent was dispensed into each well, and the cells were then incubated for 4 hours in a CO2 incubator. After that, the culture media were carefully pipetted away, and 150 μL of dimethyl sulfoxide was added to each well. The plate was then shaken gently to facilitate dissolution of formazan. Absorbance of each well at 490 nm was measured using a microplate reader, and cell survival rates were calculated according to: […]

In the case of `CCCCCCCC/C=C\CCCCCCCC(=O)OCC(C[N+](C)(C)C)OC(=O)CCCCCCC/C=C\CCCCCCCC.[Cl-]` (centres unmarked) [DOTAP, 1,2-dioleoyl-3-trimethylammonium-propane chloride], the “Cytotoxicity (in words)” value is “does not show noticeable cytotoxicity”.
As for `CCCCCCCCCCCC[N+](C)(C)CCCCCCCCCCCC.[Br-]` [DMAB, didodecyldimethylammonium bromide], the “Cytotoxicity (in words)” value was “serious cytotoxicity”.
